For 23 molecules, inhibition results are on record in US20240287052A1, “NOVEL OXAZOLE DERIVATIVE AND PHARMACEUTICAL COMPOSITION FOR PREVENTING OR TREATING ALLERGIC DISEASES COMPRISING THE SAME” (AZCURIS CO., LTD., priority 2021, published 2024).

Where two headings read alike, the source gives them in different places.

This test concerns the target T1, IL33 and ST2 binding (Homo sapiens, UniProt O95760).
T1 sequence (O95760 112-270 limits assumed): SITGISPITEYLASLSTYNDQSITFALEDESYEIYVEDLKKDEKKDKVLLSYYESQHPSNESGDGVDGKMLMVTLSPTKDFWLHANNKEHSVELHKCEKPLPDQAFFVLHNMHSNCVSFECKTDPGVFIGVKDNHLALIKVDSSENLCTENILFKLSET
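Further: plate ELISA with coated Flag-tagged human IL-33 and His-tagged human ST2, bound ST2 detected by anti-His HRP and TMB absorbance at 450 nm, 2 h compound incubation.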

As for `O=C(NCCN1CCCC1)c1nc(-c2ccc(C(F)(F)F)cc2)oc1-c1ccccc1[N+](=O)[O-]` [Compound 139, 5-(2-Nitrophenyl)-N-(2-(pyrrolidin-1-yl)ethyl)-2-(4-(trifluoromethyl)phenyl)oxazole-4-carboxamide], the inhibition runs as follows: (30 µM) 4%; (100 µM) 13%.

Take `CCOC(=O)c1nc(-c2cccc(OC)c2)oc1-c1ccccc1` [Compound 60, Ethyl 2-(3-methoxyphenyl)-5-phenyloxazole-4-carboxylate]: the inhibition reads like this: (30 µM) 27%; (100 µM) 68%.

Regarding `CN(C)CCNC(=O)c1coc(-c2ccc(C(F)(F)F)cc2)n1` [Compound 114, N-(2-(dimethylamino)ethyl)-2-(4-(trifluoromethyl)phenyl)oxazole-4-carboxamide], the inhibition reads like this: (30 µM) 10%; (100 µM) 9%.

`CN1CCN(CCNC(=O)c2nc(-c3ccc4ccccc4c3)oc2-c2ccccc2[N+](=O)[O-])CC1` [Compound 260, N-(2-(4-Methylpiperazin-1-yl)ethyl)-2-(naphthalen-2-yl)-5-(2-nitrophenyl)oxazole-4-carboxamide]: the inhibition (30 µM) was 9% and the inhibition (100 µM) turned out to be 23%.

With `O=C(NCCc1ccc(O)cc1)c1nc(-c2ccc(C(F)(F)F)cc2)oc1-c1ccccc1` [Compound 130, N-(4-Hydroxyphenethyl)-5-phenyl-2-(4-(trifluoromethyl)phenyl)oxazole-4-carboxamide], the inhibition reads like this: (30 µM) 11%; (100 µM) 37%.

With `CCOC(=O)c1coc(-c2ccc(SC)cc2)n1` [Compound 22, Ethyl 2-(4-(methylthio)phenyl)oxazole-4-carboxylate], the inhibition (100 µM) was found to be 45%.

Take `CCN(CC)CCNC(=O)c1nc(-c2ccc(C(C)(C)C)cc2)oc1-c1ccccc1` [Compound 267, 2-(4-(tert-butyl)phenyl)-N-(2-(diethylamino)ethyl)-5-phenyloxazole-4-carboxamide]: the inhibition (30 µM) is 23% and the inhibition (100 µM) stood at 29%.

Take `O=C(c1nc(-c2ccc(C(F)(F)F)cc2)oc1-c1ccccc1[N+](=O)[O-])N1CCN(CCN2CCCCC2)CC1` [Compound 151, (5-(2-Nitrophenyl)-2-(4-(trifluoromethyl)phenyl)oxazol-4-yl)(4-(2-(piperidin-1-yl)ethyl)piperazin-1-yl)methanone]: the inhibition runs as follows: (30 µM) -33%; (100 µM) -16%.

Regarding `CN(C)CCNC(=O)c1nc(-c2ccc(C(C)(C)C)cc2)oc1-c1ccccc1[N+](=O)[O-]` [Compound 268, 2-(4-(tert-Butyl)phenyl)-N-(2-(dimethylamino)ethyl)-5-(2-nitrophenyl)oxazole-4-carboxamide], the inhibition runs as follows: (30 µM) -15%; (100 µM) -6%.

For `O=C(c1nc(-c2ccc(C(F)(F)F)cc2)oc1-c1ccccc1[N+](=O)[O-])N1CCC(O)CC1` [Compound 161, (4-Hydroxypiperidin-1-yl)(5-(2-nitrophenyl)-2-(4-(trifluoromethyl)phenyl)oxazol-4-yl)methanone], the inhibition (30 µM) is -16% and the inhibition (100 µM) is -11%.

`CCOC(=O)c1nc(-c2ccc(Cl)cc2)oc1-c1ccccc1` [Compound 77, Ethyl 2-(4-chlorophenyl)-5-phenyloxazole-4-carboxylate]: the inhibition reads like this: (30 µM) 95%; (100 µM) 110%.

Consider `O=C(NCc1ccncc1)c1nc(-c2ccc(C(F)(F)F)cc2)oc1-c1ccccc1[N+](=O)[O-]` [Compound 141, 5-(2-Nitrophenyl)-N-(pyridin-4-ylmethyl)-2-(4-(trifluoromethyl)phenyl)oxazole-4-carboxamide], for which the inhibition was -11% (30 µM) and -3% (100 µM).

For `COc1cccc(-c2nc(C(=O)NCCN3CCN(C)CC3)c(-c3ccccc3[N+](=O)[O-])o2)c1` [Compound 211, 2-(3-methoxyphenyl)-N-(2-(4-methylpiperazin-1-yl)ethyl)-5-(2-nitrophenyl)oxazole-4-carboxamide], the inhibition runs as follows: (30 µM) 13%; (100 µM) 20%.

With `CN(C)CCNC(=O)c1nc(-c2ccc(-c3ccccc3)cc2)oc1-c1ccccc1` [Compound 253, 2-([1,1′-Biphenyl]-4-yl)-N-(2-(dimethylamino)ethyl)-5-phenyloxazole-4-carboxamide], the inhibition is, setting by setting: (30 µM) 11%; (100 µM) 60%.

Consider `CC(=O)Nc1ccc(NC(=O)c2nc(-c3ccc(C(F)(F)F)cc3)oc2-c2ccccc2[N+](=O)[O-])cc1` [Compound 175, N-(4-Acetamidophenyl)-5-(2-nitrophenyl)-2-(4-(trifluoromethyl)phenyl)oxazole-4-carboxamide], for which the inhibition is, setting by setting: (30 µM) 27%; (100 µM) 53%.

In the case of `CN1CCN(CCNC(=O)c2nc(-c3ccc([N+](=O)[O-])cc3)oc2-c2ccccc2)CC1` [Compound 276, N-(2-(4-Methylpiperazin-1-yl)ethyl)-2-(4-nitrophenyl)-5-phenyloxazole-4-carboxamide], the inhibition by setting is: (30 µM) 2%; (100 µM) -23%.

Turning to `CCOC(=O)c1nc(-c2ccccc2C(F)(F)F)oc1-c1ccccc1[N+](=O)[O-]` [Compound 28, Ethyl 5-(2-nitrophenyl)-2-(2-(trifluoromethyl)phenyl)oxazole-4-carboxylate], the inhibition (30 µM) was determined as 30% and the inhibition (100 µM) is 53%.

On to `CC(C)N(CCN1CCN(C(=O)c2nc(-c3ccc(C(F)(F)F)cc3)oc2-c2ccccc2[N+](=O)[O-])CC1)C(C)C` [Compound 167, (4-(2-(Diisopropylamino)ethyl)piperazin-1-yl)(5-(2-nitrophenyl)-2-(4-(trifluoromethyl)phenyl)oxazol-4-yl)methanone], for which the inhibition reads like this: (30 µM) -24%; (100 µM) -9%.

`CN1CCN(CCNC(=O)c2nc(-c3cc(F)cc(F)c3)oc2-c2ccccc2)CC1` [Compound 236, 2-(3,5-Difluorophenyl)-N-(2-(4-methylpiperazin-1-yl)ethyl)-5-phenyloxazole-4-carboxamide]: the inhibition (30 µM) is -8% and the inhibition (100 µM) is -7%.

As to `O=C(Nc1ccccn1)c1nc(-c2ccc(C(F)(F)F)cc2)oc1-c1ccccc1[N+](=O)[O-]` [Compound 143, 5-(2-Nitrophenyl)-N-(pyridin-2-yl)-2-(4-(trifluoromethyl)phenyl)oxazole-4-carboxamide], the inhibition worked out at 9% (30 µM) and 8% (100 µM).

Consider `CCOC(=O)c1nc(-c2ccc(OC)cc2)oc1-c1ccccc1[N+](=O)[O-]` [Compound 63, Ethyl 2-(4-methoxyphenyl)-5-(2-nitrophenyl)oxazole-4-carboxylate], for which the inhibition is 26% (30 µM) and 57% (100 µM).

On to `CCOC(=O)c1nc(-c2ccc(F)cc2)oc1-c1ccc([N+](=O)[O-])cc1` [Compound 69, Ethyl 2-(4-fluorophenyl)-5-(4-nitrophenyl)oxazole-4-carboxylate], for which the inhibition stood at 32% (30 µM) and 48% (100 µM).

For `CN1CCN(CCNC(=O)c2nc(-c3cccc(C(F)(F)F)c3)oc2-c2ccccc2)CC1` [Compound 122, N-(2-(4-Methylpiperazin-1-yl)ethyl)-5-phenyl-2-(3-(trifluoromethyl)phenyl)oxazole-4-carboxamide], the inhibition is -18% (30 µM) and 0% (100 µM).

One may read the inhibition as the relative decrease from the control value, in per cent.
